Here are results for 51 molecules from patent US8394971B2, “Indole derivatives as selective androgen receptor modulators (SARMS)” (Janssen Pharmaceutica N.V., priority 2004, dated 2013).

The test system of this assay is testosterone-enhanced ventral prostate and seminal vesicle weights in castrated male Sprague Dawley rats. The experiment in a line: Ventral Prostate and Seminal Vesicle Weight In Vivo Assay. Further details: species or system rat. The settings on record: immature castrated rats; once daily for five days, usually orally at 40 mg/kg, with testosterone propionate 2 mg/kg s.c. On the procedure:
Immature (approximately 50 g) castrated male Sprague Dawley rats (Charles River) were treated once daily for five days with test compound (usually given orally at 40 mg/kg in a volume of 0.3 mL, in 30% cyclodextrin or 0.5% methylcellulose vehicle) and with testosterone propionate (given subcutaneously by injection at the nape of the neck at 2 mg/kg, in a volume of 0.1 mL in sesame oil). On the sixth day, the rats were euthanized by asphyxiation in carbon dioxide. Ventral prostates and seminal vesicles were removed and their wet weights determined.
A test compound was said to be “active” if the non weight adjusted prostate weight was ≦40 mg or the % Inhibition prostate weight, body weight adjusted was ≧40% @2 mg/day dosage.
Regarding `CC(O)(C[S+]([O-])CC(F)(F)F)c1cc2cc([N+](=O)[O-])c(C(F)(F)F)cc2[nH]1` (mixture of isomers) [compound 205], the “active / inactive (inhibition of testosterone-enhanced prostate weight)” value is “active”.
Under `CC[S+]([O-])CC(C)(O)c1[nH]c2cc(C(F)(F)F)c(C#N)cc2c1C` (mixture of isomers) [compound 245] stands “inactive”.
Under `CC[S+]([O-])CC(C)(O)c1[nH]c2cc(C(F)(F)F)c(C#N)cc2c1C` (mixture of isomers) [compound 319] stands “active”; under `CCSCC(C)(O)c1cc2nc(C#N)ccc2[nH]1` (racemic) [compound 6], “inactive”; under `CCSCC(C)(O)c1cc2cc([N+](=O)[O-])c(C(F)(F)F)cc2o1` (racemic) [compound 9], “inactive”.
With `CCSCC(C)(O)c1cc2cc(Cl)c(C(F)(F)F)cc2n1S(C)(=O)=O` (racemic) [compound 146], the “active / inactive (inhibition of testosterone-enhanced prostate weight)” value was “inactive”.
`CCSCC(C)(O)c1cc2cc([N+](=O)[O-])c(C(F)(F)F)cc2[nH]1` (racemic) [compound 153]: the “active / inactive (inhibition of testosterone-enhanced prostate weight)” value was “inactive”.
Consider `CCSCC(O)(CC)c1cc2cc(Cl)c(C(F)(F)F)cc2[nH]1` (racemic) [compound 181], for which the “active / inactive (inhibition of testosterone-enhanced prostate weight)” value is reported as “active”.
Under `CC(O)(CSCc1ccccn1)c1cc2cc([N+](=O)[O-])c(C(F)(F)F)cc2[nH]1` (racemic) [compound 204] stands “inactive”.
Under `CCSCC(C)(O)c1cc2cc(C#N)c(Cl)cc2[nH]1` (racemic) [compound 224] stands “active”; under `CCSCC(C)(O)c1cc2cc(C#N)c(C(F)(F)F)cc2n1CC(F)(F)F` (racemic) [compound 237], “active”; under `CCSCC(C)(O)c1cc2cc(C#N)c(C(F)(F)F)cc2n1CC` (racemic) [compound 243], “active”.
Under `CCSCC(C)(O)c1cc2cc(C#N)c(C(F)(F)F)cc2n1COC` (racemic) [compound 322] stands “inactive”; under `CCSCC(C)(O)c1cc2cc(C#N)c(C(F)(F)F)cc2n1CC#N` (racemic) [compound 323], “inactive”.
As to `CCSCC(C)(O)c1[nH]c2cc(C(F)(F)F)c(C#N)cc2c1I` (racemic) [compound 324], the “active / inactive (inhibition of testosterone-enhanced prostate weight)” value was “inactive”.
Under `CCSCC(C)(O)c1[nH]c2cc(C(F)(F)F)c(C#N)cc2c1C#C[Si](C)(C)C` (racemic) [compound 325] stands “inactive”.
Under `C#Cc1c(C(C)(O)CSCC)[nH]c2cc(C(F)(F)F)c(C#N)cc12` (racemic) [compound 326] stands “inactive”; under `CCSCC(O)(c1cc2cc(C#N)c(C(F)(F)F)cc2[nH]1)C(F)(F)F` (racemic) [compound 327], “active”.
Under `CC(O)(c1[nH]c2cc(C(F)(F)F)c(C#N)cc2c1I)C(F)(F)F` (racemic) [compound 330] stands “active”; under `CC(O)(c1cc2cc(C#N)c(C(F)(F)F)cc2n1CC#N)C(F)(F)F` (racemic) [compound 331], “active”; under `COCn1c(C(C)(O)C(F)(F)F)cc2cc(C#N)c(C(F)(F)F)cc21` (racemic) [compound 332], “active”.
For `CSCn1c(C(C)(O)C(F)(F)F)cc2cc(C#N)c(C(F)(F)F)cc21` (racemic) [compound 333], the “active / inactive (inhibition of testosterone-enhanced prostate weight)” value is “active”.
Under `CCSCC(C)(O)c1[nH]c2cc(C(F)(F)F)c(C#N)cc2c1CC` (racemic) [compound 344] stands “active”.
Under `CCSCC(C)(O)c1cc2cc(Cl)ccc2[nH]1` (racemic) [compound 353] stands “inactive”.
As for `CCSCC(C)(O)c1cc2cc(C#N)ccc2[nH]1` (racemic) [compound 403], the “active / inactive (inhibition of testosterone-enhanced prostate weight)” value is “inactive”.
Take `CCS(=O)(=O)CC(C)(O)c1cc2cc(Cl)c(C(F)(F)F)cc2[nH]1` (racemic) [compound 404]: the “active / inactive (inhibition of testosterone-enhanced prostate weight)” value is on record as “active”.
Under `CCS(=O)(=O)CC(C)(O)c1cc2cc(C#N)c(C(F)(F)F)cc2[nH]1` (racemic) [compound 407] stands “inactive”; under `CSCC(O)c1cc2cc(C#N)c(C(F)(F)F)cc2[nH]1` (racemic) [compound 408], “inactive”; under `CCSCC(O)c1cc2cc(C#N)c(C(F)(F)F)cc2[nH]1` (racemic) [compound 410], “inactive”.
Under `CCSCC(O)c1[nH]c2cc(C(F)(F)F)c(C#N)cc2c1I` (racemic) [compound 411] stands “inactive”; under `CCS(=O)(=O)CC(O)c1cc2cc(C#N)c(C(F)(F)F)cc2[nH]1` (racemic) [compound 412], “inactive”; under `CCSCC(O)c1[nH]c2cc(C(F)(F)F)c(C#N)cc2c1Br` (racemic) [compound 413], “inactive”.
Under `CCSCC(C)(O)c1cc2cc(C)c(C(F)(F)F)cc2[nH]1` (racemic) [compound 414] stands “inactive”; under `CCSCC(C)(O)c1cc2cc(C#N)c(C)c(I)c2[nH]1` (racemic) [compound 415], “inactive”.
With `CCSCC(C)(O)c1cc2cc(C#N)c(OC)cc2[nH]1` (racemic) [compound 445], the “active / inactive (inhibition of testosterone-enhanced prostate weight)” value is “inactive”.
Under `CCSCC(C)(O)c1cc2cc(C#N)c(C)cc2[nH]1` (racemic) [compound 446] stands “inactive”; under `CCSCC(C)(O)c1cc2cc(Cl)c(C#N)cc2[nH]1` (single isomer, unassigned) [compound 228], “inactive”.
Under `CCS(=O)(=O)CC(C)(O)c1cc2cc([N+](=O)[O-])c(C(F)(F)F)cc2n1C` (single isomer, unassigned) [compound 232] stands “active”; under `CCSCC(C)(O)c1[nH]c2cc(C(F)(F)F)c([N+](=O)[O-])cc2c1I` (single isomer, unassigned) [compound 241], “inactive”; under `CCSCC(C)(O)c1[nH]c2cc(C(F)(F)F)c([N+](=O)[O-])cc2c1I` (single isomer, unassigned) [compound 244], “active”.
`CCS(=O)(=O)CC(C)(O)c1cc2cc([N+](=O)[O-])c(C(F)(F)F)cc2n1C` (single isomer, unassigned) [compound 250]: the “active / inactive (inhibition of testosterone-enhanced prostate weight)” value was “active”.
Consider `CCSCC(C)(O)c1c(C)c2cc(C#N)c(C(F)(F)F)cc2n1C` (single isomer, unassigned) [compound 317], for which the “active / inactive (inhibition of testosterone-enhanced prostate weight)” value was “inactive”.
For `CCSCC(C)(O)c1c(C)c2cc(C#N)c(C(F)(F)F)cc2n1C` (single isomer, unassigned) [compound 318], the “active / inactive (inhibition of testosterone-enhanced prostate weight)” value was “inactive”.
As to `CC(O)(c1[nH]c2cc(C(F)(F)F)c(C#N)cc2c1Cl)C(F)(F)F` (single isomer, unassigned) [compound 345], the “active / inactive (inhibition of testosterone-enhanced prostate weight)” value is given as “active”.
`CC(O)(c1[nH]c2cc(C(F)(F)F)c(C#N)cc2c1C#C[Si](C)(C)C)C(F)(F)F` (single isomer, unassigned) [compound 347]: the “active / inactive (inhibition of testosterone-enhanced prostate weight)” value is “active”.
With `CCSCC(C)(O)c1[nH]c2cc(C(F)(F)F)c(C#N)cc2c1I` (single isomer, unassigned) [compound 349], the “active / inactive (inhibition of testosterone-enhanced prostate weight)” value is listed as “active”.
Under `CCc1c(C(C)(O)CS(=O)(=O)CC)[nH]c2cc(C(F)(F)F)c(C#N)cc12` (single isomer, unassigned) [compound 354] stands “active”; under `CCS(=O)(=O)CC(C)(O)c1cc2cc(C#N)c(C(F)(F)F)cc2[nH]1` (single isomer, unassigned) [compound 397], “inactive”; under `N#Cc1cc2cc(C3(O)CCSC3)[nH]c2cc1C(F)(F)F` (stereo not drawn) [Compound #15], “inactive”.
In the case of `CC(O)(c1cc2cc(C#N)c(C(F)(F)F)cc2[nH]1)C(F)(F)F` (stereo not drawn) [Compound #329, 2-(2,2,2-Trifluoro-1-hydroxy-1-methyl-ethyl)-6-trifluoromethyl-1H-indole-5-carbonitrile], the “active / inactive (inhibition of testosterone-enhanced prostate weight)” value is reported as “active”.
Turning to `CC(O)(c1cc2cc(C#N)c(C(F)(F)F)cc2[nH]1)C(F)(F)F` (stereo not drawn) [Compound #334, 2-(2,2,2-Trifluoro-1-hydroxy-1-methyl-ethyl)-6-trifluoromethyl-1H-indole-5-carbonitrile], the “active / inactive (inhibition of testosterone-enhanced prostate weight)” value is recorded as “active”.
